Source: patent publication US20250003968A1, “ACTIVITY-BASED CELL SORTING” (MASSACHUSETTS INSTITUTE OF TECHNOLOGY, priority 2021, published 2025)
Where no end group is shown, it is not given here. [ ]: non-standard residue; d: D form. Cy5 = Cy5 fluorophore label; code o = not defined here; QSY21 = quencher dye

Legend:
[1] = tested on: CD45-, CD11b- cells from lungs; experiment: Activity-based cell sorting / flow cytometry after QZ1 administration; assay type: in vivo, mouse
Description: Eml4-Alk mice (10-12 weeks post tumor induction) and age- and sex-matched C57BL/6J healthy controls (Jackson Labs; 18-22 weeks) were euthanized by isoflurane overdose, and lungs were excised, separated into lobes, and kept in a round cell culture dish (ThermoFisher) on ice. For tumor-bearing lungs, tumors were separated from healthy tissue using forceps and scissors under a dissecting microscope, and the dissected tumors and surrounding tissue were kept in 5 mL Eppendorf tubes (Sigma Aldrich) for preparation into single-cell suspension. Tissue was minced using Noyes spring scissors (Fine Science Tools) until pieces were less than 1 cm in size, with the visual appearance of ground meat. […]
Single cell lung suspensions from Eml4-Alk mice administered QZ1 were stained with the following antibodies (catalog number, vendor, clone, fluorophore, dilution): CD44 (563508, BD, IM7, BV605, 1:200), CD105 (564746, BD, MJ7/18, BV786, 1:200), Ly6-A/E (12-5981-81, ThermoFisher, D7, PE, 1:200), CD11b (557657, BD, M1/70, APC-Cy7, 1:200), CD45 (566439, BD, 30-F11, AF488, 1:400), and EpCAM (118216, BioLegend™, G8.8, PE-Cy7, 1:200). […] Flow cytometry data was analyzed by the FlowJo software (Treestar). […]

Eml4-Alk lungs = experiment: In vivo administration of QZ1-(PEG2K), IVIS imaging of explanted lungs; set-up: species or system mouse; settings: two hours post intravenous injection
Description: QZ1 (Table 4) was reconstituted to 1 mg/mL in water, then reacted with mPEG-Maleimide, MW 2000 g/mol (Laysan Bio), for PEG coupling via maleimide-thiol chemistry. After completion of the reaction, the final compound was purified using HPLC. All reactions were monitored using HPLC connected with mass spectrometry. […] Eml4-Alk mice (11-12 weeks post tumor induction) and age- and sex-matched C57BL/6J healthy controls (Jackson Labs; 18-22 weeks) were anesthetized using isoflurane inhalation (Zoetis). QZ1-(PEG2K) (4.5 nmoles in 0.9% NaCl) was administered intravenously via tail vein injection. Two hours after probe injection, mice were imaged on an in vivo imaging system (IVIS, PerkinElmer) by exciting Cy5 at 640 nm and measuring emission at 680 nm. Mice were subsequently euthanized by isoflurane overdose followed by cervical dislocation. Lungs were dissected and explanted for imaging via IVIS. Fluorescence signal intensity was quantified using the Living Image software (PerkinElmer, v4).

[2] = target: T1, recombinant fibroblast activation protein (FAP) (Homo sapiens, UniProt Q12884); experiment: Quenched probe cleavage by recombinant FAP (fluorescence activation); assay type: biochemical; settings: quenched probe Q1 incorporating S1
T1 sequence (Q12884 26-760 limits assumed): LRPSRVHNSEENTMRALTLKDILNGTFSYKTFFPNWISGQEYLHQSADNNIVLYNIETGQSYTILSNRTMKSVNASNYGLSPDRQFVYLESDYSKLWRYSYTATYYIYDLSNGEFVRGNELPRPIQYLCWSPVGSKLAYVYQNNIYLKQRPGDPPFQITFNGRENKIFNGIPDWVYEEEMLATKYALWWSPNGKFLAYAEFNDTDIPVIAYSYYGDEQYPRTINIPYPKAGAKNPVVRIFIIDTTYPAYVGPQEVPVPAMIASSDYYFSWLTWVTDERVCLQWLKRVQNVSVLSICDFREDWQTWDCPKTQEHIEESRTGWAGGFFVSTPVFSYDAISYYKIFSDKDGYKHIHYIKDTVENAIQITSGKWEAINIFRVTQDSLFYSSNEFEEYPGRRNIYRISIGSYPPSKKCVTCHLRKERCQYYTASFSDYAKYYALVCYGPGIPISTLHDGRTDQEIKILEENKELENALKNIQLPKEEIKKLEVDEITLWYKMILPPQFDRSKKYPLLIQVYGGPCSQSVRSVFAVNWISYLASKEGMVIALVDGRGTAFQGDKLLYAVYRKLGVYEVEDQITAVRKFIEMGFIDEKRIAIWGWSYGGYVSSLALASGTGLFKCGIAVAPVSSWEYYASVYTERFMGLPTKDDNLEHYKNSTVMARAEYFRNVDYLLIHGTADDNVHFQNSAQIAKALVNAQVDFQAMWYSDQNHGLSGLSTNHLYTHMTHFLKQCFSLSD
Description: FIG. 10. Fibroblast activation protein (FAP) cleaves S1 in vitro. The quenched probe Q1, incorporating the substrate S1, was incubated with recombinant FAP, and fluorescence activation was monitored over time (n=2 replicates; mean t s.d.).

cleavage by FAP in vitro [2] | Substance | QZ1 staining in cells positive for mesenchymal cell markers ([1]; Eml4-Alk lungs, CD44, CD105, Ly-6A/E) | QZ1 staining in cells positive for mesenchymal cell markers ([1]; healthy lungs, separate experiment) | Cy5 fluorescence in explanted Eml4-Alk lungs relative to healthy lungs (Eml4-Alk lungs)
 | (QSY21)-eeeeeeeee-c(PEG2K)-oGGPQGIWGQG-rrrrrrrrr-k(Cy5) (QSY21-[dE][dE][dE][dE][dE][dE][dE][dE][dE][dC](PEG2K)[code o]GGPQGIWGQG[dR][dR][dR][dR][dR][dR][dR][dR][dR][dK](Cy5); reading uncertain; also: X11: 5-amino-3-oxopentanoyl, other spacer, or absent, printed as (QSY21)-eeeeeeeee-c(PEG2K)-oGGPQGIWGQG-rrrrrrrrr-k(Cy5)) [QZ1, PEGylated quenched probe] | increased QZ1 staining | more variable pattern | significantly increased
cleaves | GGPQGIWGQC [S1] |  |  | 
